The results in this text go back to US4808727A, “Imidazolium hydrogen carbonates” (Hoffmann-LaRoche Inc., priority 1986, dated 1989).

A word on the LD50: it is the dose expected to kill half of the subjects tested.

The subject of one data set is Litomosoides carinii. Nature of the data set: filaricidal activity in cotton rats infected with Litomosoides carinii (dead adult filaria in pleural cavity). The following applies: sc, 1008 h, s.c., infected cotton rats treated 14 weeks after infection, dissected 42 days after treatment, dosage at which 90% of worms are dead, Probit analysis. The class given is in vivo, Litomosoides carinii in cotton rats (Sigmodon hispidus). As for the experimental part: (§1) The filaricidal activity of the compounds of formula III can be determined, for example, on cotton rats (Sigmodon hispidus) which have been infected with Litomosoides carinii. The infection with L. carinii is transmitted by the blood-sucking mite (Bdellonyssus bacoti) in which the development of the microfilaria to infectious larvae takes place. The cotton rats are infected by exposing them to bites of infected mites. Fourteen (14) weeks after the infection, groups of 2-4 animals are treated subcutaneously with the compound to be tested. Forty-two (42) days after treatment with the compound to be tested, the experimental animals are dissected, whereby the adult filaria are removed from the pleural cavity. Living and dead or encapsulated worms are separated from one another and weighed. The filaricidal activity is expressed as the percentage proportion of dead macrofilaria per treatment group. The ED90 is then determined by means of Probit analysis using the values from different dosage groups. The ED90 is that dosage at which 90% of the worms removed from the pleural cavity are dead. In the following Table, there are compiled the results which have been obtained in the previously described test with representative members of the class of compound defined by formula III. Moreover, the Table contains data concerning the acute toxicity of some of these compounds in mg/per kg in the case of single oral administration to mice.

Data set [1] can be described thus: acute toxicity, single oral administration to mice. The note with it: mouse, in vivo, p.o. As for the experimental part: as §1, with “Moreover, the Table contains data concerning the acute toxicity of some of these compounds in mg/per kg in the case of single oral administration to mice.” left out

Molecules are shown by their SMILES.

In the data set with Litomosoides carinii, `CN(C)C=Cc1n(N=Cc2ccc(N(C)C)cc2)cc[n+]1N=Cc1ccc(N(C)C)cc1.[Cl-]` [Compound A, 1,3-bis[[p-(dimethylamino)benzylidene]amino]-2-[2-(dimethylamino)vinyl]imidazolium chloride] had an ED90 of 1 mg/kg. For the same compound, the 50% lethal dose (LD50) in data set [1] fell in the range of 312 to 625 mg/kg.

The compound `CC(C)c1n(N=Cc2ccc(N(C)C)cc2)cc[n+]1N=Cc1ccc(N(C)C)cc1.[Cl-]` [Compound B, 1,3-bis[[p-(dimethylamino)benzylidene]amino]-2-isopropyl-imidazolium chloride] came in with an ED90 in the data set on Litomosoides carinii of 0.5 mg/kg. In turn, `CN(C)c1ccc(C=Nn2cc[n+](N=Cc3ccc(N(C)C)cc3)c2-c2ccccc2)cc1.[Cl-]` [Compound D, 1,3-bis[[p-(dimethylamino)benzylidene]amino]-2-phenylimidazolium chloride] showed an ED90 with Litomosoides carinii of under 1 mg/kg. For the same compound, the LD50 in data set [1] lay within 1250 to 2500 mg/kg.

Turning to `Cc1n(N=Cc2ccc(N(C)C)cc2)cc[n+]1N=Cc1ccc(N(C)C)cc1.[Cl-]` [Compound C, 1,3-bis[[p-(dimethylamino)benzylidene]amino]-2-methylimidazolium chloride], in the data set on Litomosoides carinii, the ED90 is 0.85 mg/kg.
